# Laboratory results from patent EP1977646A1, “Insecticidal hydroxyethyl thlourea derivatives” (Bayer CropScience AG, priority 2007, dated 2008).
# Like-named read-outs stand apart in the source and are kept apart here.
# How the values were obtained:
# [1] = logP (HCOOH) by HPLC, EEC-Directive 79/831, Annex V.A8; format: physicochemical; settings: gradient method; for chromatographic logP: hplc acetonitrile/0.1% hcooh
# Protocol: A stirred mixture of 600 mg (3,4 mmol) 4-fluoro-1-aminoindane and 778 mg (4.37 mmol) 1,1-thiocarbonyldiimidazole in dichloromethane was kept at ambient temperature for 1,5 h. After addition of 230 mg (3.74 mmol) 2-aminoethanol dissolved in 3 mL dichloromethane the resulting mixture was stirred for further 72 h at ambient temperature. Then, the mixture was diluted with ethyl acetate and washed with 1 N HCl and saturated NaHCO3 solution. After phase separation, the organic phase was dried with solid Na2SO4, filtered and evaporated under reduced pressure. The residue was purified by chromatography (silica gel, cyclohexane/ethyl acetate = vol. 5:1) to afford 350 mg 1-(4-fluoro-2,3-dihydro-1H-inden-1-yl)-3-(2-hydroxyethyl)thiourea. The NMR spectrum was consistent with the proposed structure. logP^(1)) = 1,74 [formula] ^1) logP (HCOOH) determined according to EEC-Directive 79/831, Annex V.A8 using HPLC (gradient method, acetonitrile/0.1% HCOOH)
# logP (HCOOH) determined according to EEC-Directive 79/831, Annex V.A8 using HPLC (gradient method, acetonitrile/0.1% HCOOH)
# Myzus persicae [2] = test: Myzus persicae - test (spray application); format: in vivo; settings: application rate of 500 g/ha, Chinese cabbage leaf-disks sprayed, all instars
# Protocol: Myzus persicae - test; (spray application)
# (§1) To produce a suitable preparation of active compound, 1 part by weight of active compound is mixed with the stated amount of solvent and emulsifier, and the concentrate is diluted with emulsifier-containing water to the desired concentration.
# Chinese cabbage (Brassica pekinesis) leaf-disks infected with all instars of the green peach aphid (Myzus persicae), are sprayed with a preparation of the active ingredient at the desired concentration.
# After the specified period of time, mortality in % is determined. 100% means that all aphids have been killed; 0% means that none of the aphids have been killed.
# Myzus persicae [3] = test: Myzus-Test; oral (spray application); format: in vivo
# Protocol: Myzus-Test; oral (spray application)
# To produce a suitable preparation of active compound, 1 part by weight of active compound ist mixed with the stated amount of solvent and emulsifier, and the concentrate is diluted with emulsifier-containing water to the desired concentration.
# Containers are infested with a mixed population of the green peach aphid (Myzus persicae), the aphids suck on a preparation of the active compound at the desired concentration.
# After the specified period of time, mortality in % is determined. 100 % means that all aphids have been killed; 0 % means that none of the aphids have been killed.
# Aphis gossypii = Aphis gossypii - test (leaf dip); format: in vivo; settings: foliar, application rate of 20 ppm, cotton leaves dipped
# Protocol: Aphis gossypii - test [table] To produce a suitable preparation of active compound, 1 part by weight of active compound is mixed with the stated amount of solvent and emulsifier, and the concentrate is diluted with emulsifier-containing water to the desired concentration. Cotton leaves (Gossypium hirsutum) which are heavily infested by the cotton aphid (Aphis gossypii) are treated by being dipped into the preparation of the active compound of the desired concentration. After the specified period of time, the mortality in % is determined. 100 % means that all the aphids have been killed; 0 % means that none of the aphids have been killed.
# Tetranychus urticae = Tetranychus urticae - test; OP-resistant (spray application); format: in vivo; settings: in Phaseolus vulgaris, read-out: activity (mortality in %)
# Protocol: Tetranychus urticae - test; OP-resistant (spray application)
# as §1
# French bean (Phaseolus vulgaris) which are heavily infested with all stages of the two spotted spidermite (Tetranychus urticae), are sprayed with a preparation of the active ingredient at the desired concentration.
# After the specified period of time, mortality in % is determined. 100% means that all spider mites have been killed and 0% means that none of the spider mites have been killed.
# Myzus persicae [4] = test: Myzus persicae - test (drench); format: in vivo; settings: soil, application rate of 20 ppm, cabbage plants drenched
# Protocol: as §1
# Cabbage plants (Brassica oleracea) which are heavily infested by the green peach aphid (Myzus persicae) are treated by being drenched with the preparation of the active compound of the desired concentration.
# After the specified period of time, mortality in % is determined. 100 % means that all the aphids have been killed; 0 % means that none of the aphids have been killed.
# [5] = application rate of 100 ppm, aphids suck on preparation, mixed population
chromatographic logP [1],SMILES,mortality at 500 g/ha (Myzus persicae [2]) [%],mortality at 20 ppm (Aphis gossypii) [%],also measured
1.78,CC(CO)NC(=S)N[C@H]1CCc2ccccc21 (stereo partly shown) [1-21],,,
2.21,COCCNC(=S)NC1CCc2c(F)cccc21 (stereo not shown) [1-17],≥ 80,,mortality at 100 ppm (Myzus persicae [3]): ≥ 80%
2.07,"COCCNC(=S)NC1CCc2ccccc21 (stereo not shown) [1-4, 1-(2,3-dihydro-1H-inden-1-yl)-3-(2-methoxyethyl)thiourea]",≥ 80,,mortality at 100 ppm (Myzus persicae [3]; [5]): ≥ 80%
1.79,OCCNC(=S)N[C@H]1CCCc2ccccc21 [4-2],≥ 80,≥ 80,
1.42,OCCNC(=S)NC1CCOc2ccccc21 (stereo not shown) [3-1],≥ 80,,
1.74,"OCCNC(=S)NC1CCc2c(F)cccc21 (stereo not shown) [1-14, 1-(4-fluoro-2,3-dihydro-1H-inden-1-yl)-3-(2-hydroxyethyl)thiourea]",≥ 80,≥ 80,
1.64,OCCN(CCO)C(=S)N[C@H]1CCc2ccccc21 [1-105],,,
1.65,OCCNC(=S)N[C@@H]1CCc2ccccc21 [1-3],,,
1.68,OCCNC(=S)NC1CCc2c(F)ccc(F)c21 (stereo not shown) [1-83],,,

SMILES,chromatographic logP [1],mortality at 500 g/ha (Myzus persicae [2]) [%],mortality at 20 ppm (Aphis gossypii) [%],also measured
"OCCNC(=S)N[C@H]1CCc2ccccc21 [1-2, 1-[(1S)-2,3-dihydro-1H-inden-1-yl]-3-(2-hydroxyethyl)thiourea]",1.65,≥ 80,≥ 80,"logP (HCOOH) ([1]; acetonitrile/0.1% HCOOH): 1,56; mortality at 100 ppm (Myzus persicae [3]; [5]): ≥ 80%; mortality at 100 g/ha (Tetranychus urticae): ≥ 80%; mortality at 20 ppm (Myzus persicae [4]): ≥ 80%"
